According to ChEMBL document CHEMBL1150745, “Plant anticancer agents, XLVI. Cytotoxic casbane-type constituents of Agrostistachys hookeri” (1988):
≈ marks a conversion by molar mass, not a printed value.

system: P388; assay: Cytotoxicity against mouse P388 cells; type: functional; settings: read-out: ED50 (the source's name)

Point of comparison: `C/C1=C/C(=O)C/C(C)=C/[C@H](O)C(=O)/C(C)=C/[C@H]2[C@@H](CC1)C2(C)C`, EC50 2.8 µg/mL (≈ 8.85 µM). Against it:
- C/C1=C/[C@H](O)C/C(C)=C/[C@H](O)C(=O)/C(C)=C/[C@H]2[C@@H](CC1)C2(C)C [AGROSTISTACHIN] — 2-fold lower, 1.4 µg/mL (≈ 4.4 µM)
- C/C1=C\[C@H](O)C(=O)/C(C)=C/[C@@H]2[C@@H](CCC(C)(O)/C=C/C1)C2(C)C (some centres undefined) [AGROSKERIN] — 2-fold lower, 1.4 µg/mL (≈ 4.4 µM)
- C/C1=C/[C@H](O)C/C(C)=C/[C@H](O)C(=O)/C(C)=C/[C@H]2[C@@H](CC1)[C@]2(C)CO — 3.5-fold lower, 0.8 µg/mL (≈ 2.39 µM)
